Laboratory results published in patent US9474814B2, “Differential evaporation potentiated disinfectant system” (XY, LLC, priority 2007, dated 2016).
Where two headings read alike, the source gives them in different places.

Assays:
[1] = neat substance; BuAc (reference) = 1.00; cited from earlier work
[2] = flash point; cited from earlier work
[3] = n-octanol/water; cited from earlier work
[4] = Relative evaporation rates; type: physicochemical; details: BuAc (reference) = 1.00
Excerpt: (§1) Line C represents the change in fluid volume of a 20% (v/v) solution of diacetone alcohol in water caused by evaporation (a particular embodiment of the inventive differential evaporation antimicrobial composition), while line D represents the change in fluid phase concentration of the same 20% (v/v) diacetone alcohol in water occurring during the same fluid volume change. In this case, complete evaporation can occur in approximately 75 time units. Comparatively, the 20% (v/v) diacetone alcohol in water can be engaged with a population of microorganisms for a greater duration of time than the conventional antimicrobial composition without reapplication of an additional amount because evaporation occurs at a slower rate as shown by Table 3.

[5] = cited from earlier work
[6] = test system: Staphylococcus aureus (ATCC 6538); experiment: Potentiation Assay (non-evaporative vs evaporative procedure); type: cell-based; details: for Evaporated Log 10 Reduction: evaporated in centrifuge 60 minutes; for Non-evaporated Log 10 Reduction: set 60 minutes; for evaporative potentiation of antimicrobial efficacy: evaporative vs non-evaporative procedure, concentrations tested in water
Description: Now referring primarily to Table 5 and FIG. […] The non-evaporative and evaporative procedures included 50 μL of an overnight Staphylococcus aureus (ATCC 6538, ˜10^9 CFU/mL) culture added to each 2 mL sterile plastic vial with a conical bottom and dried without capping in a centrifuge for 30 minutes. One hundred microliters of the solution being tested was added to each vial (as triplicate vials) either let set for 60 minutes (non-evaporative) or evaporated in a centrifuge for 60 minutes (evaporative), with time to evaporate being determined by each DAA mixtures own evaporative characteristic. To the non-evaporated vials, 400 μL Mueller Hinton Broth (MHB) was added to the vial and 100 μL was plated onto Nutrient agar (NA). To the evaporated vials, 500 μL of MHB was added and 100 μL was plated onto NA. Plates were incubated overnight at ˜37° C. and counted (the “Potentiation Assay”).

[7] = test system: Staphylococcus aureus (ATCC 6538), Pseudomonas aeruginosa (ATCC 9027), Salmonella Choleraesuis (ATCC 13312); experiment: Coverslip assay: composition applied to dried bacteria on glass coverslips, evaporated to dryness, nutrient agar contact; type: cell-based
Description: These bacteria cultures can be diluted to obtain concentrations of about 10^7 through about 10^3 CFU/ml and 10 μl of each dilution can be spread onto a glass coverslip with a sterile loop and allowed to dry. Afterwards, the coverslips containing 10^5 to 10^2 CFU can be placed inside of petri dish. Different concentrations of the amount of substance can be applied to the cover slips with a nebulizer as described by Germicidal Spray Products as Disinfectants, Method 961.02, AOAC International (2004). As a non-limiting example, isopropyl alcohol (IPA) and diacetone alcohol (DAA) can be assessed as above described by obtaining aqueous mixtures of IPA at concentrations of 55% w/w, 20% w/w, and 5% w/w. […] A nutrient agar lightly pressed against the coverslips allows contact of microorganisms on the coverslips with the nutrient agar. The nutrient agar can be incubated for 48 hours at 37° C. in contact with the coverslips and then observed for microbial reproduction in the region where the coverslips contact the nutrient agar. Untreated coverslips can be used as a positive control. Particular examples of utilizing the method are set forth below.

[8] = Evaporation of fluid volume over time (FIG. 2); type: physicochemical
Excerpt: as §1
By comparison, Line C represents the change in fluid volume of a 20% (v/v) solution of diacetone alcohol in water, while line D represents the change in concentration of diacetone alcohol in water. As to this non-limiting example, if 10% diacetone alcohol (v/v) is the minimum concentration to provide an antimicrobial composition, then the entire 75 time units provide an antimicrobial composition because the concentration of diacetone alcohol increases over the 75 time units in accordance with embodiments of differential evaporation potentiated antimicrobial compositions.

[9] = azeotrope in water, Table 2, listed as Diacetone Alcohol
[10] = 3% v/v active component, 97% water
[11] = 6% v/v active component, 94% water
[12] = 10% v/v active component, 90% water
[13] = 15% v/v active component, 85% water
[14] = 20% v/v active component, 80% water
[15] = 70% v/v active component, 30% water

Q: What does the source list for `CC(C)=O` [Acetone, reference compound]?
A: Relative Evaporation Rates [1]: 11.60; FP [2]: −18 °C; Log P [3]: −0.23

Q: With `CC(=O)CC(C)(C)O` [DAA, 4-hydroxy-4-methyl-2-pentanone] as the compound, how does the “Relative Evaporation Rates (estimated)” value ([4]; 20% (v/v)) read?
A: 0.31

Q: And the “Relative Evaporation Rates (estimated)” value ([4]; 40% (v/v))?
A: 0.27

Q: What about the “Relative Evaporation Rates” value [1] of the same compound?
A: 0.14

Q: What about the azeotrope % mol/mol ([5]; azeotrope in water, Table 2) of the same compound?
A: 2.2% mol/mol

Q: And the azeotrope % vol/vol [5, 9]?
A: 13.43% vol/vol

Q: What about the azeotrope % w/w [5, 9] of the same compound?
A: 12.70% w/w

Q: What about the azeotrope % w/w ([5]; azeotrope in water, Table 2, listed as diacetone alcohol) of the same compound?
A: about 12.70 % w/w

Q: And the azeotrope point ([5]; diacetone alcohol and water)?
A: about 12.7 grams per 100 grams of the com

Q: And the “Evaporated Log 10 Reduction” value [6, 10]?
A: X (denotes a plate where the number of colonies represented less than 50% of the number of colonies counted in the corresponding positive control plate, representing reduction of the number of microorganisms (<2 Log10 reduction).)

Q: What about the “Non-evaporated Log 10 Reduction” value [6, 10] of the same compound?
A: ---0--- (denotes a plate where the numbers of colonies represented more than 50% of the number of colonies counted in the corresponding positive control plate, representing no significant reduction in the population of viable microorganisms (0 to 1 Log10 reduction).)

Q: What about the “Evaporated Log 10 Reduction” value [6, 11] of the same compound?
A: X (denotes a plate where the number of colonies represented less than 50% of the number of colonies counted in the corresponding positive control plate, representing reduction of the number of microorganisms (<2 Log10 reduction).)

Q: And the “Non-evaporated Log 10 Reduction” value [6, 11]?
A: ---0--- (denotes a plate where the numbers of colonies represented more than 50% of the number of colonies counted in the corresponding positive control plate, representing no significant reduction in the population of viable microorganisms (0 to 1 Log10 reduction).)

Q: And the “Evaporated Log 10 Reduction” value [6, 12]?
A: XX (denotes a plate where the number of colonies represented less than 10% of the number of colonies counted in the corresponding positive control plate, representing a significant reduction of the number of microorganisms (>3 Log10 reduction).)

Q: And the “Non-evaporated Log 10 Reduction” value [6, 12]?
A: ---0--- (denotes a plate where the numbers of colonies represented more than 50% of the number of colonies counted in the corresponding positive control plate, representing no significant reduction in the population of viable microorganisms (0 to 1 Log10 reduction).)

Q: And the “Evaporated Log 10 Reduction” value [6, 13]?
A: XXX (denotes a plate in which zero colonies were present, representing complete reduction of the number of microorganisms (>5 Log10 reduction).)

Q: What about the “Non-evaporated Log 10 Reduction” value [6, 13] of the same compound?
A: XXx (denotes a plate where the number of colonies represented less than 1% of the number of colonies counted in the corresponding positive control plate, representing nearly complete reduction of the number of microorganisms (>4 Log10 reduction).)

Q: What about the “evaporative potentiation of antimicrobial efficacy” value [6] of the same compound?
A: can be potentiated by evaporation

Q: What about the Evaporated from coverslip [7, 11] of the same compound?
A: X (denotes a plate where the number of colonies represented less than 50% of the number of colonies counted in the corresponding positive control plate, representing reduction of the number of microorganisms (<2 Log10 reduction).)

Q: What about the Evaporated from coverslip [7, 12] of the same compound?
A: XX (denotes a plate where the number of colonies represented less than 10% of the number of colonies counted in the corresponding positive control plate, representing a significant reduction of the number of microorganisms (>3 Log10 reduction).)

Q: And the Evaporated from coverslip ([7]; 60% v/v active component, 40% water)?
A: XXX (denotes a plate in which zero colonies were present, representing complete reduction of the number of microorganisms (>5 Log10 reduction).)

Q: And the “reduction of populations of microorganisms, comparison” value ([7]; concentrations at which water evaporated at a greater rate than DAA from the mixture)?
A: greater reduction of populations of microorganisms than 70% IPA (v/v)

Q: And the complete evaporation ([8]; 20% (v/v) in water)?
A: approximately 75 time units

Q: What about the “Log P” value [3] of the same compound?
A: about −0.14

Q: For `CC(C)O` [Isopropanol, 2-propanol, reference compound], which “Azeotrope with Water % v/v” value ([5]; Table 1) is on record?
A: 83% v/v

Q: What about the “Azeotrope with Water % w/w” value ([5]; Table 1) of the same compound?
A: 87% w/w

Q: What about the FP [2] of the same compound?
A: 21 °C

Q: And the “Evaporated Log 10 Reduction” value [6, 12]?
A: ---0--- (denotes a plate where the numbers of colonies represented more than 50% of the number of colonies counted in the corresponding positive control plate, representing no significant reduction in the population of viable microorganisms (0 to 1 Log10 reduction).)

Q: And the “Non-evaporated Log 10 Reduction” value [6, 12]?
A: ---0--- (denotes a plate where the numbers of colonies represented more than 50% of the number of colonies counted in the corresponding positive control plate, representing no significant reduction in the population of viable microorganisms (0 to 1 Log10 reduction).)

Q: What about the “Evaporated Log 10 Reduction” value [6, 14] of the same compound?
A: ---0--- (denotes a plate where the numbers of colonies represented more than 50% of the number of colonies counted in the corresponding positive control plate, representing no significant reduction in the population of viable microorganisms (0 to 1 Log10 reduction).)

Q: And the “Non-evaporated Log 10 Reduction” value [6, 14]?
A: XXX (denotes a plate in which zero colonies were present, representing complete reduction of the number of microorganisms (>5 Log10 reduction).)

Q: And the “Evaporated Log 10 Reduction” value [6, 15]?
A: XXX (denotes a plate in which zero colonies were present, representing complete reduction of the number of microorganisms (>5 Log10 reduction).)

Q: What about the “Non-evaporated Log 10 Reduction” value [6, 15] of the same compound?
A: XXX (denotes a plate in which zero colonies were present, representing complete reduction of the number of microorganisms (>5 Log10 reduction).)

Q: And the “evaporative potentiation of antimicrobial efficacy” value [6]?
A: cannot be potentiated

Q: And the Evaporated from coverslip [7, 11]?
A: ---o---

Q: What about the Evaporated from coverslip ([7]; 25% v/v active component, 75% water) of the same compound?
A: ---o---

Q: What about the Evaporated from coverslip [7, 15] of the same compound?
A: X (denotes a plate where the number of colonies represented less than 50% of the number of colonies counted in the corresponding positive control plate, representing reduction of the number of microorganisms (<2 Log10 reduction).)

Q: What about the “reduction of the population of viable microorganisms” value ([7]; concentrations of 6% and 25% in water) of the same compound?
A: did not reduce the population of viable microorganisms

Q: And the complete evaporation ([8]; 70% (v/v) in water)?
A: about 15 time units
